From patent publication US7772271B2 (priority 2004, dated 2010) come the findings set out here.

Broadly, the melting point is the temperature, or range, at which the solid turns liquid.

The compound `CC(OC(=O)Nc1ccc(-c2c(C#N)c3ccc(OC4CCOCC4)cc3n2C2CCC2)cc1)C(F)(F)F` (stereo not drawn) [Compound 2668] showed a melting point of 195 to 197 °C.

The compound `CCSc1ccc2c(C#N)c(-c3ccc(NC(=O)O[C@H](C)C4CC4)cc3)n(C3CCC3)c2c1` [compound 2720, (R)-[4-(3-cyano-1-cyclobutyl-6-ethylsulfanyl-1H-indol-2-yl)-phenyl]-carbamic acid 1-cyclopropyl-ethyl ester] returned a melting point of 120 to 122 °C.

As to `C[C@@H](OC(=O)Nc1ccc(-c2c(C#N)c3ccc(Oc4nccnc4C#N)cc3n2C2CC2)cc1)C1CC1` [Compound 3262], the melting point is 223 °C (dec.).

In turn, `CCN(CC)C(=O)c1ccc2c(c1)c(C#N)c(-c1ccc(NC(=O)OC(C)C)cc1)n2C1CCC1` [Compound 3145] gave a melting point of 225 to 226 °C.

For `Cc1cccc(-c2ccc3c(C#N)c(-c4ccc(NC(=O)O[C@H](C)C5CC5)cc4)n(C4CCC4)c3c2)c1` [Compound 2977], the melting point was in the range of 112 to 117 °C.

Regarding `N#Cc1c(-c2ccc(N3CCCS3(=O)=O)cc2)n(CC2CC2)c2cc(N3CCOCC3)ccc12` [Compound 2921], the melting point was 241 to 245 °C.

For the compound `C[C@@H](OC(=O)Nc1ccc(-c2c(C#N)c3ccc(Oc4ncccc4C#N)cc3n2C2CC2)cc1)C1CC1` [Compound 3263], the melting point lay within 183 to 185 °C.

Compound `N#C/N=C(/Nc1ccc(-c2c(C#N)c3ccc(OC4CCOCC4)cc3n2C2CCC2)cc1)NC1CCCCC1` [Compound 3176] displayed a melting point of 209 to 211 °C.

`CCOc1ccc2c(I)c(-c3ccc(NC(=O)OC(C)C)cc3)n(CC3CC3)c2c1` [compound 2634, [4-(1-cyclopropylmethyl-6-ethoxy-3-iodo-1H-indol-2-yl)-phenyl]-carbamic acid isopropyl ester] gave a melting point of 135 to 140 °C.

`CC(C)OC(=O)Nc1ccc(-c2c(C#N)c3ccc(-n4ccccc4=O)cc3n2C2CCC2)cc1` [Compound 3277] displayed a melting point of 267 to 268.5 °C.

As to `Cc1cc(NC(=O)O[C@H](C)C2CC2)ccc1-c1c(C#N)c2ccc(Oc3ncccc3C#N)cc2n1C1CCC1` [Compound 3333], the melting point is 108 to 115 °C.

On to `CC(C)OC(=O)Nc1ccc(-c2c(C#N)c3cc(OCCCn4cccn4)ccc3n2C2CCC2)cc1` [Compound 2606], for which the melting point fell in the range of 148 to 150 °C.

Turning to `Cc1cccn(-c2ccc3c(C#N)c(-c4ccc(NC(=O)O[C@H](C)C5CC5)cc4)n(C4CCC4)c3c2)c1=O` [Compound 3338], the melting point fell in the range of 280 to 281 °C.

With `CCn1c(-c2ccc(NS(=O)(=O)CC)cc2)c(C#N)c2ccc(C(=O)O)cc21` [Compound 1344], the melting point fell in the range of 294 to 296 °C.

The compound `CCc1cnc(Oc2ccc3c(C#N)c(-c4ccc(NC(=O)O[C@H](C)C5CC5)cc4C)n(C4CCC4)c3c2)nc1` [Compound 3058] registered a melting point of 181 to 185 °C.

Compound `C[C@@H](OC(=O)Nc1ccc(-c2c(C#N)c3ccc(OC(F)F)cc3n2C2CCC2)cc1)C(F)(F)F` [Compound 2880] displayed a melting point of 161 to 162 °C.

Consider `N#Cc1c(-c2ccc(NC(=O)OC3CCS(=O)(=O)CC3)cc2)n(C2CCC2)c2cc(Oc3ncccn3)ccc12` [Compound 3267], for which the melting point was 181 to 212 °C.

`Cc1cc(Nc2ccc(-c3c(C#N)c4ccc(Oc5ncccn5)cc4n3C3CCC3)cc2)n(C)n1` [compound 3285, 1-cyclobutyl-2-[4-(2,5-dimethyl-2H-pyrazol-3-ylamino)-phenyl]-6-(pyrimidin-2-yloxy)-1H-indole-3-carbonitrile] registered a melting point of 236 to 238 °C.

Compound `CCOc1ccc(-c2c(C#N)c3ccc(N4CCN(C(=O)OC(C)(C)C)CC4)cc3n2CC)cc1` [compound 1337, 4-[3-cyano-2-(4-ethoxyphenyl)-1-ethylindol-6-yl]piperazine-1-carboxylic acid tert-butyl ester] yielded a melting point of 183 to 184 °C.

With `N#Cc1c(-c2ccc(NS(=O)(=O)NCC3CC3)cc2)n(C2CCC2)c2cc(Oc3nccnc3Cl)ccc12` [Compound 2948], the melting point is 206 to 208 °C.

In the case of `CC(C)OC(=O)Nc1ccc(-c2c(C#N)c3ccc(N4CCOCC4)cc3n2C2CCC2)cc1Cl` [Compound 3011], the melting point lay in the range of 196 to 199 °C.

Turning to `N#Cc1c(-c2ccc(NC(=O)Nc3n[nH]c(C4CC4)n3)cc2)n(C2CCC2)c2cc(Oc3ncccn3)ccc12` [Compound 3087], the melting point is 275 °C (dec.).

Turning to `CCOc1ccc2c(C#N)c(-c3ccc(NC(=O)O[C@H](C)C(F)(F)F)cc3)n(C3CCC3)c2c1` [Compound 2878], the melting point is 196 to 199 °C.

`C[C@@H](OC(=O)Nc1ccc(-c2c(C#N)c3ccc(Oc4nccc(C(F)(F)F)n4)cc3n2C2CCC2)cc1)C1CC1` [Compound 2924]: the melting point is 119 to 121 °C.

In the case of `CC(C)C(OC(=O)Nc1ccc(-c2c(C#N)c3ccc(OC4CCOC4)cc3n2C2CCC2)cc1)C(C)C` (stereo not drawn) [Compound 1454], the melting point lay in the range of 183 to 184 °C.

Compound `CCOc1ccc2c(C#N)c(-c3ccc(NC(=O)O[C@H](C)c4ccncc4)cc3)n(C3CCC3)c2c1` [Compound 2705] displayed a melting point of 180 to 183 °C.

Take `C[C@@H](OC(=O)Nc1ccc(-c2c(C#N)c3ccc(OC4CCOCC4)cc3n2C2CC2)cc1)C1CC1` [Compound 2712]: the melting point fell in the range of 149 to 151 °C.

Regarding `CC(C)S(=O)(=O)Nc1ccc(-c2c(C#N)c3cc(Oc4ncccn4)ccc3n2C2CCC2)cc1` [Compound 2848], the melting point lay within 206 to 207 °C.

Turning to `CCn1c(-c2ccc(NC(=O)N3CCCCC3)cc2)c(C#N)c2ccc(OCCOC)cc21` [Compound 1380], the melting point was 216 to 218 °C.

`COCCOc1ccc2c(C#N)c(-c3ccc(C(=O)NC(C)C)cc3)n(C3CCC3)c2c1` [Compound 2753] gave a melting point of 202 to 204 °C.

The compound `CCCN(CCC)C(=O)c1ccc2c(C#N)c(-c3ccc(NC(=O)O[C@H](C)C4CC4)cc3)n(C3CCC3)c2c1` [Compound 2271] registered a melting point of 160 to 163 °C.

With `C[C@@H](OC(=O)Nc1ccc(-c2c(C#N)c3ccc(Oc4ncccn4)cc3n2C2CCC2)cc1)C(F)(F)F` [Compound 2852], the melting point was 205 to 207 °C.

`N#Cc1c(-c2ccc(NS(=O)(=O)C3CCC3)cc2)n(C2CCC2)c2cc(OC3COCOC3)ccc12` [Compound 2919] showed a melting point of 200 to 204 °C.

For the compound `C[C@@H](OC(=O)Nc1ccc(-c2c(C#N)c3cc(Oc4nccnc4Cl)ccc3n2C2CCC2)cc1)C1CC1` [Compound 3255], the melting point lay within 209 to 211 °C.

`Cc1cccn(-c2ccc3c(C#N)c(-c4ccc(NC(=O)O[C@H](C)C(F)(F)F)cc4)n(C4CCC4)c3c2)c1=O` [Compound 3341] had a melting point of 265 to 266 °C.

Consider `CC(OC(=O)Nc1ccc(-c2c(C#N)c3ccc(OCC4OCCO4)cc3n2C2CCC2)cc1)C(F)(F)F` (stereo not drawn) [Compound 2646], for which the melting point lay within 187 to 189 °C.

As to `COc1ccc2c(Cl)c(-c3ccc(NC(=O)OC(C)C)cc3)n(CC3CC3)c2c1` [compound 2804, [4-(3-chloro-1-cyclopropylmethyl-6-methoxy-1H-indol-2-yl)-phenyl]-carbamic acid isopropyl ester], the melting point is 171 to 177 °C.

Compound `CCC(=O)Nc1ccc(-c2c(C#N)c3ccc(N4CCN(C)CC4)cc3n2CC)cc1` [compound 1341, N-{4-[3-cyano-1-ethyl-6-(4-methylpiperazin-1-yl)-indol-2-yl]phenyl}propionamide] registered a melting point of 170 to 171 °C.

With `N#Cc1c(-c2ccc(Nc3cccc(OC(F)(F)F)c3)cc2)n(C2CCC2)c2cc(OC3CCOCC3)ccc12` [Compound 3129], the melting point is 108 to 110 °C.

Compound `CCCS(=O)(=O)Nc1ccc(-c2c(C#N)c3ccc(Oc4ncccc4C#N)cc3n2C2CCC2)c(OC)c1` [Compound 3344] came in with a melting point of 227 to 230 °C.

`COCCN(C)C(=O)c1ccc2c(C#N)c(-c3ccc(NC(=O)O[C@H](C)C4CC4)cc3)n(C3CCC3)c2c1` [Compound 2791] gave a melting point of 96 to 98 °C.

Take `N#Cc1c(-c2ccc(NCc3ccccc3C(F)(F)F)cc2)n(C2CCC2)c2cc(OCCF)ccc12` [Compound 2970]: the melting point was 183 to 185 °C.

As to `C[C@@H](OC(=O)Nc1ccc(-c2c(C#N)c3ccc(-c4cc(N(C)C)ccn4)cc3n2C2CCC2)cc1)C1CC1` [Compound 3259], the melting point lay within 203 to 208 °C.

With `N#Cc1c(-c2ccc(NC(=O)OCc3ccccc3)cc2)n(C2CCC2)c2ccc(OCCCn3cncn3)cc12` [Compound 2732], the melting point was in the range of 215 to 217 °C.

`C[C@H](NC(=O)Nc1ccc(-c2c(C#N)c3ccc(Oc4ncccn4)cc3n2C2CCC2)cc1)c1ccc(F)cc1` [Compound 2820]: the melting point was 152 °C (dec.).

In turn, `CCC1(S(=O)(=O)Nc2ccc(-c3c(C#N)c4ccc(C(=O)N5CCOCC5)cc4n3C3CCC3)cc2)CC1` [Compound 2965] had a melting point of 212 to 214 °C.

Take `CCS(=O)(=O)Nc1ccc(-c2c(C#N)c3ccc(N4CCCC4)cc3n2C2CCC2)cc1` [Compound 2962]: the melting point fell in the range of 244 to 250 °C.

`N#Cc1c(-c2ccc(Oc3cnccn3)cc2)n(C2CCC2)c2cc(OC3CCOCC3)ccc12` [Compound 3168] yielded a melting point of 167 to 170 °C.

As for `CCCOC(=O)Nc1ccc(-c2c(C#N)c3ccc(OCCOC)cc3n2CC)cc1` [Compound 1369], the melting point was in the range of 154 to 156 °C.

Compound `CCCS(=O)(=O)Nc1ccc(-c2c(C#N)c3ccc(Oc4cnccc4C#N)cc3n2CC2CC2)c(C)c1` [Compound 3303] had a melting point of 138 to 142 °C.

Compound `CC(C)Nc1ccc(-c2c(C#N)c3ccc(O[C@@H]4CCOC4)cc3n2C2CC2)cc1` [Compound 2818] yielded a melting point of 185 to 187 °C.

Compound `CC(C)S(=O)(=O)Nc1ccc(-c2c(C#N)c3ccc(N4CCCC4)cc3n2C2CCC2)cc1` [Compound 2975] had a melting point of 256 to 261 °C.

Regarding `CCCS(=O)(=O)Nc1ccc(-c2c(C#N)c3ccc(Oc4nccc(C)n4)cc3n2C2CC2)cc1` [Compound 2939], the melting point fell in the range of 239 to 241 °C.

With `CCCS(=O)(=O)Nc1ccc(-c2c(C#N)c3ccc(Oc4ncccc4C(F)(F)F)cc3n2C2CC2)cc1` [Compound 2935], the melting point lay within 216 to 217 °C.
